According to patent US12662509B2, “Inhibitors of 17β-HSD7 and uses thereof” (UNIVERSITÉ LAVAL, priority 2021, dated 2026):

Experiments:
[1] = tested on: human MCF-7 breast tumors; assay: MCF-7 xenograft tumor growth in OVX nude mice; format: in vivo; settings: for growth of human MCF-7 breast tumors, % of initial growth: OVX nude mice, INH7 groups 5 mg/kg/day + E1 0.1 μg/mice/day, E1, E2 groups 0.1 μg/mice/day
Excerpt: FIG. 4—is an illustration of the effect of various inhibitors of 17 β-HSD1 (INH7-10 and INH7-464) on the growth of human MCF-7 breast tumors in nude mice over a period of 22 days; illustration of the regression of MCF-7 xenograft tumor growth in OVX nude mice (cf. Table 1). The growth regression curves represent the decrease in tumor volume in response to INH7 (INH7-10 and INH7-464) treatment (Groups 4 and 5). […] Tumor volume=0.52×(length×width^2). Statistical significance by one-way ANOVA assay is shown by **P<0.01.
(§1) Female athymic nude mice (4 weeks) were ovariectomized under isoflurane-induced anesthesia. One week after ovariectomy (OVX), 5×10^6 MCF-7 cells or 10×10^6 T47D cells suspended in a […] mixture of Matrigel (BD)/culture medium (50:50) were administered by s.c. injection on both side of each mice. All mice were supplemented by daily s.c. injection 0.1 μg Estradiol (E2) for 5 weeks. […] The animals were euthanized on day 23, followed by the collection of tumor specimens and blood samples. The estrogen-sensitive organs (uterus and vagina), liver and kidney were removed and excised of fat and weighed. Tumor specimens were photographed and weighed.

human T47D breast tumors = assay: T47D xenograft tumor growth in OVX nude mice; format: in vivo; settings: for growth of human T47D breast tumors, % of initial growth: OVX nude mice, INH7 groups 5 mg/kg/day + E1 0.1 μg/mice/day, E1, E2 groups 0.1 μg/mice/day
Excerpt: FIG. 5—is an illustration of the effect of various inhibitors of 17 β-HSD1 (INH7-10 and INH7-464) on the growth of human T47D breast tumors in nude mice over a period of 22 days; illustration of the regression of T47D xenograft tumor growth in OVX nude mice by (cf. Table 2). The growth regression curves represent the decrease in tumor volume in response to INH7 (INH7-10 and INH7-464) treatment (Groups 4 and 5). […] Statistical significance by one-way ANOVA assay is shown by **P<0.01.
as §1

[2] = Cytotoxicity on the MCF-10A cell line; format: cell-based; settings: human, MCF-10A cells; incubation time 3 days; 1 nM-100 μM
Method: (§2) FIG. 9A—is an illustration of the cytotoxicity of the INH7-464 inhibitor on the MCF-7 cell line. FIG. 9B—is an illustration of the cytotoxicity of the INH7-464 inhibitor on the MCF-10A cell line. Paclitaxel (PTX) was used as the reference compound and was dissolved in DMSO for the stock solutions. The stock solutions were subsequently diluted at multiple concentrations with culture media in order to obtain the final desired concentrations ranging between 1 nM-100 μM. The incubation time was 3 days. The IC50 values (at which 50% of cell growth inhibition—concentration that inhibits 50% of cell proliferation—is observed) were calculated using an iterative least square regression method (cf. Table 3). The cytotoxicity values for the INH7-464 inhibitor were lower than those for Paclitaxel (PTX) in the different cell lines (cf. Table 3).
(§3) Paclitaxel (PTX) was used as a reference compound and was dissolved in DMSO for the stock solutions. The stock solutions were subsequently diluted at multiple concentrations with culture media in order to obtain the final desired concentrations ranging from 1 nM-100 μM. The incubation time was 3 days. The IC50 values (at which 50% of cell growth inhibition—concentration that inhibits 50% of cell proliferation—is observed) were calculated using an iterative least square regression method.

MCF-7 cell proliferation = assay: Effect of INH7 inhibitors on MCF-7 cell proliferation (DNA synthesis, 144 hours, E1 0.1 nM); format: cell-based, human; settings: 2 μM
Method: FIG. 1—is an illustration of the effect of various inhibitors of […] (INH7-10, INH7-81 and INH7-464) on MCF-7 cell proliferation over a period of 144 hours.
The effects of various inhibitors, including INH7-464, on MCF-7 cell proliferation over a period of 144 hours is illustrated in FIG. 1. The hormone source E1 (Estrone) was provided at 0.1 nM. Data are reported as % of DNA synthesis vs Control (0.1 nM E1) (100%). Quadruple wells were used for each condition and repeated in three independent experiments. Error bars represent SD. *, P<0.05 vs control; **, P<0.001 vs. control by Student's test.

[3] = Cytotoxicity on the MCF-7 cell line; format: cell-based; settings: human, MCF-7 cells; incubation time 3 days; 1 nM-100 μM
Method: as §2, §3

[4] = Toxicity of INH7-464 in mice, weekly s.c. injection over 21 days; format: in vivo
Method: FIG. 10—is an illustration of the toxicity of the INH7-464 inhibitor in mice (8 mice/group) at various concentrations over a period of 21 days. Control Group: 0.4% methylcellulose/DMSO (92/8). INH7-464 group: Day 1: 20 mg/kg (INH7-464); Day 8: 30 mg/kg (INH7-464); Day 15: 60 mg/kg (INH7-464). […] Statistical significance by T-test is shown by ***P<0.001.
FIG. 11—is an illustration of the effect (toxicity) of the INH7-464 inhibitor on the liver, kidney, ovary and uterus weight, as per the toxicity experiment illustrated in FIG. 10.
INH7-464 was administered by s.c. injection. INH7-464 was first dissolved in DMSO, followed by the addition of 0.4% methylcellulose to obtain a final 8% concentration of co-solvent (methylcellulose/DMSO (92/8). The injected volume was 0.1 mL (s.c.). […] All the mice were weighed every day. The liver, kidney, ovaries, and uterus were collected and weighed following 3 weeks of treatment.

[5] = Body weight of nude mice during treatment of MCF-7 and T47D tumors; format: in vivo; settings: MCF-7 and T47D tumor-bearing nude mice; 22 days; 5 mg/kg/day
Excerpt: FIG. 6A—is an illustration of the body weight of the nude mice following treatment of human MCF-7 and T47D breast tumors with INH7-47 over a period of 22 days. […] (FIG. 6B) is an illustration of the body weight of the OVX nude mice (mice having undergone an ovariectomy) over a period of 22 days. The OVX mice were not treated with an INH7 inhibitor, but instead were subjected to daily subcutaneous (s.c.) injection with vehicle (0.4% methylcellulose/DMSO (92/8)).
as §1

| Compound | growth of human MCF-7 breast tumors, % of initial growth ([1]; day 0) [%] | growth of human MCF-7 breast tumors, % of initial growth ([1]; day 5) [%] | growth of human MCF-7 breast tumors, % of initial growth ([1]; day 9) [%] | growth of human MCF-7 breast tumors, % of initial growth ([1]; day 12) [%] | growth of human MCF-7 breast tumors, % of initial growth ([1]; day 13) [%] | growth of human MCF-7 breast tumors, % of initial growth ([1]; day 19) [%] | growth of human MCF-7 breast tumors, % of initial growth ([1]; day 22) [%] | growth of human T47D breast tumors, % of initial growth (human T47D breast tumors; day 0) [%] | growth of human T47D breast tumors, % of initial growth (human T47D breast tumors; day 5) [%] | growth of human T47D breast tumors, % of initial growth (human T47D breast tumors; day 9) [%] | growth of human T47D breast tumors, % of initial growth (human T47D breast tumors; day 12) [%] | growth of human T47D breast tumors, % of initial growth (human T47D breast tumors; day 15) [%] | growth of human T47D breast tumors, % of initial growth (human T47D breast tumors; day 19) [%] | growth of human T47D breast tumors, % of initial growth (human T47D breast tumors; day 22) [%] | IC50 at 3 days [2] [nM] | IC50 at 3 days [3] [nM] | other results |
| --- | --- | --- | --- | --- | --- | --- | --- | --- | --- | --- | --- | --- | --- | --- | --- | --- | --- |
| C[C@]12CC[C@@H]3c4ccc(O)cc4CC[C@H]3[C@@H]1CCC2=O [E1, Estrone] | 100 | 102.886 | 100.227 | 109.033 | 95.3089 | 100.249 | 102.648 | 100 | 93.64 | 113.43 | 112.0519 | 122.0034 | 112.9356 | 112.831 |  |  |  |
| C[C@]12CC[C@@H]3c4ccc(O)cc4CC[C@H]3[C@@H]1CC[C@@H]2O [E2, Estradiol] | 100 | 82.8535 | 97.2662 | 131.541 | 123.252 | 108.413 | 120.974 | 100 | 112.55 | 120.84 | 121.306 | 150.417 | 144.117 | 138.919 |  |  |  |
| CCCCCCCCCN1C[C@]2(CC[C@H]3[C@@H]4CC[C@H]5NC(=O)CC[C@]5(C)[C@H]4CC[C@@]32C)OC1=O [INH7-464, (4aR,4bS,6aS,7R,9aS,9bR,11aR)-4a,6a-dimethyl-3′-nonyltetradecahydrospiro [indeno[5,4-f]quinoline-7,5′-oxazolidine]-2,2′(1H)-dione] | 100 | 88.1406 | 81.8741 | 84.2617 | 66.5956 | 67.8843 | 59.6876 | 100 | 100.51 | 78.1158 | 76.9139 | 63.5165 | 67.9195 | 50.9558 | 2670 | 582 | inhibition of MCF-7 cell proliferation (% of DNA synthesis vs control 0.1 nM E1) (MCF-7 cell proliferation): significant inhibition at 2 μM; decrease in the tumor size relative to the control (E1) ([1]; MCF-7 xenograft model, day 22, 5 mg/kg/day): 60%±5%; decrease in the tumor size relative to the control (E1) (human T47D breast tumors; T47D xenograft model, day 22, 5 mg/kg/day): 51%±5%; tolerability after weekly subcutaneous injection ([4]; 8/group, 20-60 mg/kg weekly s.c. for 3 weeks (21 days)): very well tolerated; apparent toxicity ([4]; 20-60 mg/kg weekly (s.c.)): no apparent toxicity; weight changes of liver, kidney, ovary and uterus ([4]; after 3 weeks of weekly s.c. 20, 30 and 60 mg/kg): no significant weight changes; body weight of the nude mice [5]: absence of weight loss |
| CC(=O)O[C@H]1C(=O)[C@@]2(C)[C@H]([C@H](OC(=O)c3ccccc3)[C@]3(O)C[C@H](OC(=O)[C@H](O)[C@@H](NC(=O)c4ccccc4)c4ccccc4)C(C)=C1C3(C)C)[C@]1(OC(C)=O)CO[C@@H]1C[C@@H]2O [Paclitaxel (PTX), Paclitaxel] |  |  |  |  |  |  |  |  |  |  |  |  |  |  | 0.637 | 3.08 |  |
